In patent US10875851B2, “Factor XIIa inhibitors” (Merck Sharp & Dohme Corp., priority 2016, dated 2020):

The compounds below were run against human Factor XIIa (Homo sapiens (Human), UniProt P00748) (assay: Factor XIIa Assay). Conditions: purified human Factor XIIa 500 pM; substrate n-Acetyl-Lys-Pro-Arg-AFC 100 μM; pH 7.4; read-out: FXIIa IC50.
Format: biochemical
Procedure, shortened: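 Purified human FXIIa at 500 pM final with 100 μM n-Acetyl-Lys-Pro-Arg-AFC in 50 mM HEPES, 150 mM NaCl, 5 mM CaCl2, 0.1% PEG 8000, pH 7.4, at room temperature or 37° C. Initial fluorogenic hydrolysis rates measured after enzyme–inhibitor equilibration; IC50 taken where Vi=Vo/2.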

human Factor XIIa, sequence (P00748 373-615): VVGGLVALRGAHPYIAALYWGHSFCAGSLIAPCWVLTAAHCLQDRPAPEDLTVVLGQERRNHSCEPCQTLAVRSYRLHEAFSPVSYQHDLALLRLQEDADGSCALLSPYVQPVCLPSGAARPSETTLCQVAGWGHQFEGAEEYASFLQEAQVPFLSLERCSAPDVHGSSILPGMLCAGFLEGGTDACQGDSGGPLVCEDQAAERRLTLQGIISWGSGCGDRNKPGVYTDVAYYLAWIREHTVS

| SMILES | IC50 |
| --- | --- |
| NCc1cccc(OC(=O)N2CCN(C(=O)[C@@H](CC3CCCCC3)NC3CCCCC3)[C@H](C(=O)NCc3cccs3)C2)c1Cl [Example 55, 3-(aminomethyl)-2-chlorophenyl (3S)-4-(N,3-dicyclohexyl-D-alanyl)-3-[(thiophen-2-ylmethyl)carbamoyl]piperazine-1-carboxylate] | 1.1 nM |
| C[C@@H]1N=C(N2CCN(C(=O)[C@@H](CCCCNS(C)(=O)=O)NC3CCCCC3)[C@H](C(=O)NCc3cccs3)C2)O[C@H]1c1cccc(Cl)c1 [Example 125, (2S)-4-[(4S,5S)-5-(3-chlorophenyl)-4-methyl-4,5-dihydro-1,3-oxazol-2-yl]-1-[N^2-cyclohexyl-N^6-(methylsulfonyl)-D-lysyl]-N-(thiophen-2-ylmethyl)piperazine-2-carboxamide] | 23 nM |
| C[C@@H]1N=C(N2CCN(C(=O)[C@@H](CCCCNS(C)(=O)=O)NC3CCCCC3)[C@H](C(=O)NCc3cccs3)C2)O[C@H]1c1ccccc1C#N [Example 127, (2S)-4-[(4S,5S)-5-(2-cyanophenyl)-4-methyl-4,5-dihydro-1,3-oxazol-2-yl]-1-[N^2-cyclohexyl-N^6-(methylsulfonyl)-D-lysyl]-N-(thiophen-2-ylmethyl)piperazine-2-carboxamide] | 18.7 nM |
| CC[C@@H](NC1CCCCC1)C(=O)N1CCN(C(=O)Oc2ccc(C)c(C)c2Cl)C[C@H]1C(=O)NCc1ccc(CN)c(OC)c1 [Example 106, 2-chloro-3,4-dimethylphenyl (3S)-3-{[4-(aminomethyl)-3-methoxybenzyl]carbamoyl}-4-[(2R)-2-(cyclohexylamino)butanoyl]piperazine-1-carboxylate] | 6.2 nM |
| C[C@@H]1N=C(N2CCN(C(=O)[C@@H](CCCCN(C)C)NC3CCC4(CC3)CCN(Cc3ccccc3)C4)[C@H](C(=O)NCc3cccs3)C2)O[C@H]1c1ccccc1 (stereo partly drawn) [Example 142, (2S)-1-[N^2-(2-benzyl-2-azaspiro[4.5]dec-8-yl)-N^6,N^6-dimethyl-D-lysyl]-4-[(4S,5S)-4-methyl-5-phenyl-4,5-dihydro-1,3-oxazol-2-yl]-N-(thiophen-2-ylmethyl)piperazine-2-carboxamide] | 0.4 nM |
| CC(C)S(=O)(=O)N1CCC([C@@H](NC2CCCCC2)C(=O)N2CCN(C(=O)Oc3ccccc3Cl)C[C@H]2C(=O)NCc2cccs2)CC1 [Example 63, 2-chlorophenyl (3S)-4-[(2R)-2-(cyclohexylamino)-2-{1-[(1-methylethyl)sulfonyl]piperidin-4-yl}acetyl]-3-[(thiophen-2-ylmethyl)carbamoyl]piperazine-1-carboxylate] | 2.6 nM |
| COc1cc(CNC(=O)[C@@H]2CN(C(=O)Oc3cccc4ccccc34)CCN2C(=O)[C@@H](CC2CCCCC2)NC2CCCCC2)ccc1CN [Example 24, naphthalen-1-yl (3S)-3-{[4-(aminomethyl)-3-methoxybenzyl]carbamoyl}-4-(N,3-dicyclohexyl-D-alanyl)piperazine-1-carboxylate] | 1.6 nM |
| CC1(C)N=C(N2CCN(C(=O)[C@@H](CC3CCCCC3)NC3CCCCC3)[C@H](C(=O)NCc3cccs3)C2)OC1c1ccccc1 (stereo partly drawn) [Example 137, (2S)-1-(N,3-dicyclohexyl-D-alanyl)-4-(4,4-dimethyl-5-phenyl-4,5-dihydro-1,3-oxazol-2-yl)-N-(thiophen-2-ylmethyl)piperazine-2-carboxamide] | 23.2 nM |
| C[C@@H]1N=C(N2CCN(C(=O)[C@@H](CCCCN(C)C)NC3CCC4(CC3)CCN(Cc3ccccc3)C4)[C@H](C(=O)NCc3cccs3)C2)O[C@H]1c1ccccc1 (stereo partly drawn) [Example 130, (2S)-1-[N^2-(2-benzyl-2-azaspiro[4.5]dec-8-yl)-N^6,N^6-dimethyl-D-lysyl]-4-[(4S,5S)-4-methyl-5-phenyl-4,5-dihydro-1,3-oxazol-2-yl]-N-(thiophen-2-ylmethyl)piperazine-2-carboxamide] | 1.2 nM |

More lines, now with the values ahead:

| IC50 | SMILES |
| --- | --- |
| 3.8 nM | CC(C)N[C@H](CCCCN1CCCCC1)C(=O)N1CCN(C2=N[C@@H](C)[C@H](c3ccccc3)O2)C[C@H]1C(=O)NCc1cccs1 [Example 115, (2S)-1-[N-(1-methylethyl)-6-piperidin-1-yl-D-norleucyl]-4-[(4S,5S)-4-methyl-5-phenyl-4,5-dihydro-1,3-oxazol-2-yl]-N-(thiophen-2-ylmethyl)piperazine-2-carboxamide] |
| 44.4 nM | CC(C)N[C@H](CCCCN1CCCCC1)C(=O)N1CCN(C2=N[C@@H](C)[C@H](c3ccccc3)O2)C[C@H]1C(=O)NCc1cc(F)c(CN)c(F)c1 [Example 181, (2S)-N-[4-(aminomethyl)-3,5-difluorobenzyl]-1-[N-(1-methylethyl)-6-piperidin-1-yl-D-norleucyl]-4-[(4S,5S)-4-methyl-5-phenyl-4,5-dihydro-1,3-oxazol-2-yl]piperazine-2-carboxamide] |
| 36.1 nM | C[C@@H]1N=C(N2CCN(C(=O)[C@H](N)CCCCN3CCCCC3)[C@H](C(=O)NCc3cccc(Cl)c3)C2)O[C@H]1c1cccc(Br)c1 [Example 167, (2S)-4-[(4S,5S)-5-(3-bromophenyl)-4-methyl-4,5-dihydro-1,3-oxazol-2-yl]-N-(3-chlorobenzyl)-1-(6-piperidin-1-yl-D-norleucyl)piperazine-2-carboxamide] |
| 47.1 nM | CC(C)N[C@H](CCCCN1CCCCC1)C(=O)N1CCN(C2=N[C@@H](C)[C@H](c3ccccc3)O2)C[C@H]1C(=O)NCc1ccc(CN)cc1 [Example 180, (2S)-N-[4-(aminomethyl)benzyl]-1-[N-(1-methylethyl)-6-piperidin-1-yl-D-norleucyl]-4-[(4S,5S)-4-methyl-5-phenyl-4,5-dihydro-1,3-oxazol-2-yl]piperazine-2-carboxamide] |
| 0.5 nM | CC(C)N[C@H](CCCCN1CCCCC1)C(=O)N1CCN(C2=N[C@@H](C)[C@H](c3ccccc3)O2)C[C@H]1C(=O)NCc1ccc2[nH]cc(Cl)c2c1 [Example 171, (2S)-N-[(3-chloro-1H-indol-5-yl)methyl]-1-[N-(1-methylethyl)-6-piperidin-1-yl-D-norleucyl]-4-[(4S,5S)-4-methyl-5-phenyl-4,5-dihydro-1,3-oxazol-2-yl]piperazine-2-carboxamide] |
| 4.6 nM | CC(C)N[C@H](CCCCN1CCCCC1)C(=O)N1CCN(C2=N[C@@H](C)[C@H](c3ccccc3)O2)C[C@H]1C(=O)NCc1cc(CN)cs1 [Example 178, (2S)-N-{[4-(aminomethyl)thiophen-2-yl]methyl}-1-[N-(1-methylethyl)-6-piperidin-1-yl-D-norleucyl]-4-[(4S,5S)-4-methyl-5-phenyl-4,5-dihydro-1,3-oxazol-2-yl]piperazine-2-carboxamide] |
| 12.5 nM | CC(C)N[C@H](CCCCN1CCCCC1)C(=O)N1CCN(C2=NC(C)[C@H](c3cccc(C#N)c3)O2)C[C@H]1C(=O)NCc1cccs1 (stereo partly drawn) [Example 169, (2S)-4[5-(3-cyanophenyl)-4-methyl-4,5-dihydro-1,3-oxazol-2-yl]-1-[N-(1-methylethyl)-6-piperidin-1-yl-D-norleucyl]-N-(thiophen-2-ylmethyl)piperazine-2-carboxamide] |
| 24.6 nM | C[C@@H]1N=C(N2CCN(C(=O)[C@@H](CCCCNS(C)(=O)=O)NC3CCCCC3)[C@H](C(=O)NCc3cccs3)C2)O[C@H]1c1cccc(Br)c1 [Example 124, (2S)-4-[(4S,5S)-5-(3-bromophenyl)-4-methyl-4,5-dihydro-1,3-oxazol-2-yl]-1-[N^2-cyclohexyl-N^6-(methylsulfonyl)-D-lysyl]-N-(thiophen-2-ylmethyl)piperazine-2-carboxamide] |
